According to patent US8552002B2 (Novartis AG, priority 2004, dated 2013):
Like-named read-outs stand apart in the source and are kept apart here.

Tests used:
Format in all cases: biochemical
Tek = target: T1, Tek (Homo sapiens, UniProt Q02763); assay: Recombinant GST-Tek (Tie-2) tyrosine kinase assay (33P into poly(Glu,Tyr)); conditions: Examples 1 to 169
T1 construct: amino acids 773-1124 of the cytoplasmic kinase domain of human Tek, N-terminally fused to GST; made in house; host or cells: Sf9 insect cells (baculovirus)
Procedure, shortened: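 GST-fused human Tek kinase domain (aa 773-1124), baculovirus-expressed, 150 ng per reaction; 10 μg/mL poly(Glu,Tyr) 4:1, 4.0 μM [γ-33P]ATP, 3 mM MnCl2/3 mM MgCl2, pH 7.5, 30 min at ambient temperature. 33P uptake read on PVDF filters; IC50 by linear regression from four concentrations in duplicate.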

FGFR3 (K650E) = target: T2, FGFR3 (K650E) (Homo sapiens, UniProt P22607, K650E); assay: Recombinant GST-FGFR-3-K650E tyrosine kinase assay (33P into poly(Glu,Tyr)); conditions: 10 μM
T2 construct: amino acids 411-806 of the cytoplasmic domain of human FGFR-3, N-terminally fused to GST; made in house; host or cells: Sf9 insect cells (baculovirus)

KDR = target: T3, KDR (Homo sapiens, UniProt P35968); assay: Inhibitory activity against KDR (VEGF-R2), in vitro data of Examples 170 and 207; conditions: 10 μM, read-out: KDR inhibition at 10 μM
T3 construct: expressed in transfected cells; host or cells: CHO cells
Procedure, shortened: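 KDR tyrosine phosphorylation detected by luminescence after overnight 4° C capture of 20 μg lysate protein with PY20:AP antibody. Lysates came from cells given compound for 2 h at 37° C, then final 20 ng/ml VEGF for 5 min; compound-free medium as control.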

c-Abl = c-Abl (Homo sapiens, UniProt P00519); assay: Inhibitory activity against c-Abl (Example 207); conditions: Examples 171 to 206
[1] = Examples 1 to 169, read-out: FGFR3 (K650E) inhibition at 10 μM
[2] = Examples 171 to 206, read-out: FGFR3 inhibition at 10 μM

T3 sequence (P35968 20-1356): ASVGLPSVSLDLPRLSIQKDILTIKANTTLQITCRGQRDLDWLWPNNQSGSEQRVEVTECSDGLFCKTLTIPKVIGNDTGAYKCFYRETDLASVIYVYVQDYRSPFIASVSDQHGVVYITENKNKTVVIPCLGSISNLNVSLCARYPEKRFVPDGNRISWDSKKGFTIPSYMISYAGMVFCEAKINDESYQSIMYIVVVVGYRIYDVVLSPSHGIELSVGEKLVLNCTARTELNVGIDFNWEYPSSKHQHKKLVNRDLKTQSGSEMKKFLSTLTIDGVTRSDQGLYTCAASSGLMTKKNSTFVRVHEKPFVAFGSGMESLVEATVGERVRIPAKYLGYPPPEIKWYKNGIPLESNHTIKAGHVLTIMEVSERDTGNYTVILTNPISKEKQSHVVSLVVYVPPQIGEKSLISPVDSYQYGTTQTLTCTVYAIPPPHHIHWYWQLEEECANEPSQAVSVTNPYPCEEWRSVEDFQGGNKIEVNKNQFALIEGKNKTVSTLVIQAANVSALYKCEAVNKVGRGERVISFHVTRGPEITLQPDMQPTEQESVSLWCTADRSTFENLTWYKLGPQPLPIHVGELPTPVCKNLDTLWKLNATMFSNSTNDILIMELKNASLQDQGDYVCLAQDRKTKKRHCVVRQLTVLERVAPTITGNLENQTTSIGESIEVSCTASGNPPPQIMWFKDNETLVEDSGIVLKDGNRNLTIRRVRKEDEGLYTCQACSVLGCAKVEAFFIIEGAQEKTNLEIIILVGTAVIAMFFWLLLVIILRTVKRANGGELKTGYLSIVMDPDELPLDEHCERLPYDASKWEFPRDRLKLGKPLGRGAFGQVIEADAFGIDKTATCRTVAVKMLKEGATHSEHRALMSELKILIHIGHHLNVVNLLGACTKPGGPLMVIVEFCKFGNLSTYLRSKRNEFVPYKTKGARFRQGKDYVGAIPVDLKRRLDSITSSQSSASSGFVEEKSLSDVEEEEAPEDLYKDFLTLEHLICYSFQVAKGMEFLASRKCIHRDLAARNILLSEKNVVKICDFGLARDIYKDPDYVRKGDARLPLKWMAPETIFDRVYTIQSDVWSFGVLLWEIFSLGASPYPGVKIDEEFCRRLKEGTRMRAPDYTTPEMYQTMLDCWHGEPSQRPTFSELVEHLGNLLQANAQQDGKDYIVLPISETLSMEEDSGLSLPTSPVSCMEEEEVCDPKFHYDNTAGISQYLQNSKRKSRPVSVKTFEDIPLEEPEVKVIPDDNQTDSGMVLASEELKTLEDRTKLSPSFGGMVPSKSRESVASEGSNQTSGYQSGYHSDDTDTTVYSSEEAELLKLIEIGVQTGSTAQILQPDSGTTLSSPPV
T1 sequence (Q02763 773-1124): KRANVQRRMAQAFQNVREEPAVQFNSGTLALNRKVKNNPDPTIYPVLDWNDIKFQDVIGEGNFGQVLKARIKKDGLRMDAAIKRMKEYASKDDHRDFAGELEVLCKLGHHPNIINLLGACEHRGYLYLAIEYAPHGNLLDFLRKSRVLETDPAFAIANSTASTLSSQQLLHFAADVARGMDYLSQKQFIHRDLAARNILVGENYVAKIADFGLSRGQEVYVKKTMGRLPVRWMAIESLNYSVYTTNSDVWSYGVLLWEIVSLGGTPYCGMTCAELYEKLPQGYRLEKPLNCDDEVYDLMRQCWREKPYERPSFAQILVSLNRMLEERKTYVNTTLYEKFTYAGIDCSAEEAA
c-Abl, sequence (P00519 whole entry): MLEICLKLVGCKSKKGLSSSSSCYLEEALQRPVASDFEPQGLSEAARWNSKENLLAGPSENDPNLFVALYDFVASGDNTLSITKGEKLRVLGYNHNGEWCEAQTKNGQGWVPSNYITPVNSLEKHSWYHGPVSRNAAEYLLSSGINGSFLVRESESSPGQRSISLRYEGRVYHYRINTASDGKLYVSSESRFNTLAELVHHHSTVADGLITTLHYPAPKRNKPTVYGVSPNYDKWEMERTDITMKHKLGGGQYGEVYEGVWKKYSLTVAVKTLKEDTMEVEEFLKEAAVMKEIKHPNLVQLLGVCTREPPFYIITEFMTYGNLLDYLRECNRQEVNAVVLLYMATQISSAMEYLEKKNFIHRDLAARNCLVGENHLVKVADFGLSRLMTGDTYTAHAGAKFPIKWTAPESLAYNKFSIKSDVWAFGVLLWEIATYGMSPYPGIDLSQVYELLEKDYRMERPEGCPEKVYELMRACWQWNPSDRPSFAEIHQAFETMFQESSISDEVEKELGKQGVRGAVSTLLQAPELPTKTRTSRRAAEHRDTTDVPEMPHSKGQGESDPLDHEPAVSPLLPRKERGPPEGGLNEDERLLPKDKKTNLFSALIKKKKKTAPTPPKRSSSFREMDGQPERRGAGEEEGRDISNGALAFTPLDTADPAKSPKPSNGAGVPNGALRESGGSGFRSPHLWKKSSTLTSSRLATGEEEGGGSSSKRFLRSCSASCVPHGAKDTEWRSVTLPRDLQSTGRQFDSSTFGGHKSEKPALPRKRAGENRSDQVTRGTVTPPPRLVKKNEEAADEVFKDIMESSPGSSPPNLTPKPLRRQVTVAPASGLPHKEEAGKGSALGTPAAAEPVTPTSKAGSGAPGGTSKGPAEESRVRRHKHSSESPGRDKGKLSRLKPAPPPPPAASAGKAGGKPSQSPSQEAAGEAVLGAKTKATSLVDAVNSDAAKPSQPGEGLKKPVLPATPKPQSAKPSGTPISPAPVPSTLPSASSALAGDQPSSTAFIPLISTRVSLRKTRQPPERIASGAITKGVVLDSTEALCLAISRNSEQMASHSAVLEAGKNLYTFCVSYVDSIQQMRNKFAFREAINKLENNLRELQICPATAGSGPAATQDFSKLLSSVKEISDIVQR
T2 sequence (P22607 411-806 K650E): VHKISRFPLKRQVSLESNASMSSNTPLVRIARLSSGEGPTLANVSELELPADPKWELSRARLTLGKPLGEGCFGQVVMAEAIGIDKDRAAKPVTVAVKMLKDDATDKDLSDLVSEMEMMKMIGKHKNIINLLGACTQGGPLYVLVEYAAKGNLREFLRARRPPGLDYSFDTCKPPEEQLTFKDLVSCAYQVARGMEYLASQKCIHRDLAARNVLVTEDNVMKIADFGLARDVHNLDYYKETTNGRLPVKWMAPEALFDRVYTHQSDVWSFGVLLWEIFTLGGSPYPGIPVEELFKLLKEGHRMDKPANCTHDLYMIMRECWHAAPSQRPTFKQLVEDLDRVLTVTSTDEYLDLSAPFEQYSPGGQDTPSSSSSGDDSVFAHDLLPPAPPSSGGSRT

SMILES	inhibition at 10 µM (Tek)	inhibition at 10 µM (FGFR3 (K650E); [1])	inhibition at 10 µM (KDR; Examples 1 to 169)	inhibition at 10 µM (c-Abl)	inhibition at 10 µM (FGFR3 (K650E); [2])	inhibition at 10 µM (KDR; Examples 171 to 206)
COc1cc(OC)c(Cl)c(NC(=O)N(C)c2cc(Nc3cccc(CN4CCN(C(C)C)CC4)c3)ncn2)c1Cl [Example 161, 3-(2,6-Dichloro-3,5-dimethoxy-phenyl)-1-{6-[3-(4-isopropyl-piperazin-1-ylmethyl)-phenylamino]-pyrimidin-4-yl}-1-methyl-urea]	12 to 100%	27 to 100%	67 to 100%			
COc1cc(OC)c(Cl)c(NC(=O)N(C)c2cc(Nc3cccc(CN(C)CCN(C)C)c3)ncn2)c1Cl [Example 162, 3-(2,6-Dichloro-3,5-dimethoxy-phenyl)-1-[6-(3-{[(2-dimethylamino-ethyl)-methyl-amino]-methyl}-phenylamino)-pyrimidin-4-yl]-1-methyl-urea]	12 to 100%	27 to 100%	67 to 100%			
COc1cc(OC)c(Cl)c(NC(=O)N(C)c2cc(Nc3ccc(N4CCN(C(C)C)CC4)cc3)ncn2)c1Cl [Example 163, 3-(2,6-Dichloro-3,5-dimethoxy-phenyl)-1-{6-[4-(4-isopropyl-piperazin-1-yl)-phenylamino]-pyrimidin-4-yl}-1-methyl-urea]	12 to 100%	27 to 100%	67 to 100%			
COc1cc(OC)c(Cl)c(NC(=O)N(C)c2cc(Nc3ccc(OC4CCN(C)CC4)cc3)ncn2)c1Cl [Example 165, 3-(2,6-Dichloro-3,5-dimethoxy-phenyl)-1-methyl-{6-[4-(1-methyl-piperidin-4-yloxy)-phenylamino]-pyrimidin-4-yl}-urea]	12 to 100%	27 to 100%	67 to 100%			
CCN(C(=O)Nc1c(Cl)c(OC)cc(OC)c1Cl)c1cc(Nc2ccc(OC3CCN(C)CC3)cc2)ncn1 [Example 166, 3-(2,6-Dichloro-3,5-dimethoxy-phenyl)-1-ethyl-{6-[4-(1-methyl-piperidin-4-yloxy)-phenylamino]-pyrimidin-4-yl}-urea]	12 to 100%	27 to 100%	67 to 100%			
COc1cc(OC)c(Cl)c(NC(=O)N(C)c2cc(Nc3ccc(CN(C)C)c(C(F)(F)F)c3)ncn2)c1Cl [Example 167, 3-(2,6-Dichloro-3,5-dimethoxy-phenyl)-1-[6-(4-dimethylaminomethyl-3-trifluoromethyl-phenylamino)-pyrimidin-4-yl]-1-methyl-urea]	12 to 100%	27 to 100%	67 to 100%			
CCN1CCN(Cc2ccc(Nc3cc(NC(=O)Nc4c(Cl)c(OC)cc(OC)c4Cl)ncn3)cc2C(F)(F)F)CC1 [Example 168, 1-(2,6-Dichloro-3,5-dimethoxy-phenyl)-3-{6-[4-(4-ethyl-piperazin-1-ylmethyl)-3-trifluoromethyl-phenylamino]-pyrimidin-4-yl}-urea]	12 to 100%	27 to 100%	67 to 100%			
CCN1CCN(Cc2ccc(Nc3cc(N(C)C(=O)Nc4c(Cl)c(OC)cc(OC)c4Cl)ncn3)cc2C(F)(F)F)CC1 [Example 169, 3-(2,6-Dichloro-3,5-dimethoxy-phenyl)-1-{6-[4-(4-ethyl-piperazin-1-ylmethyl)-3-trifluoromethyl-phenylamino]-pyrimidin-4-yl}-1-methyl-urea]	12 to 100%	27 to 100%	67 to 100%			
CNc1cc(NC(=O)Nc2cc(NC(=O)c3cccc(C(F)(F)F)c3)ccc2C)ncn1 [Example 172, N-{4-Methyl-3-[3-(6-methylamino-pyrimidin-4-yl)-ureido]-phenyl}-3-trifluoromethyl-benzamide]				79 to 100%	56 to 98%	87 to 100%
Cc1ccc(NC(=O)c2cccc(C(F)(F)F)c2)cc1NC(=O)Nc1cc(Nc2ccccc2)ncn1 [Example 173, N-{4-Methyl-3-[3-(6-phenylamino-pyrimidin-4-yl)-ureido]-phenyl}-3-trifluoromethyl-benzamide]				79 to 100%	56 to 98%	87 to 100%
Cc1ccc(NC(=O)c2cccc(C(F)(F)F)c2)cc1NC(=O)Nc1cc(Nc2ccc(N3CCN(C)CC3)cc2)ncn1 [Example 174, N-[4-Methyl-3-(3-{6-[4-(4-methyl-piperazin-1-yl)-phenylamino]-pyrimidin-4-yl}-ureido)-phenyl]-3-trifluoromethyl-benzamide]				79 to 100%	56 to 98%	87 to 100%
Cc1ccc(NC(=O)c2cccc(C(F)(F)F)c2)cc1NC(=O)Nc1cc(Nc2cccc(N3CCN(C)CC3)c2)ncn1 [Example 175, N-[4-Methyl-3-(3-{6-[3-(4-methyl-piperazin-1-yl)-phenylamino]-pyrimidin-4-yl}-ureido)-phenyl]-3-trifluoromethyl-benzamide]				79 to 100%	56 to 98%	87 to 100%
CCN(CC)CCOc1ccc(Nc2cc(NC(=O)Nc3cc(NC(=O)c4cccc(C(F)(F)F)c4)ccc3C)ncn2)cc1 [Example 176, N-[3-(3-{6-[4-(2-Diethylamino-ethoxy)-phenylamino]-pyrimidin-4-yl}-ureido)-4-methyl-phenyl]-3-trifluoromethyl-benzamide]				79 to 100%	56 to 98%	87 to 100%
Cc1ccc(NC(=O)c2cccc(C(F)(F)F)c2)cc1NC(=O)Nc1cc(Nc2ccc(OCCCN(C)C)cc2)ncn1 [Example 177, N-[3-(3-{6-[4-(3-Dimethylamino-propoxy)-phenylamino]-pyrimidin-4-yl}-ureido)-4-methyl-phenyl]-3-trifluoromethyl-benzamide]				79 to 100%	56 to 98%	87 to 100%
Cc1ccc(NC(=O)c2cccc(C(F)(F)F)c2)cc1NC(=O)Nc1cc(Nc2cccc(OCCN(C)C)c2)ncn1 [Example 178, N-[3-(3-{6-[3-(2-Dimethylamino-ethoxy)-phenylamino]-pyrimidin-4-yl}-ureido)-4-methyl-phenyl]-3-trifluoromethyl-benzamide]				79 to 100%	56 to 98%	87 to 100%
Cc1ccc(NC(=O)c2cccc(C(F)(F)F)c2)cc1NC(=O)Nc1cc(Nc2ccc(OCCN3CCOCC3)cc2)ncn1 [Example 179, N-[4-Methyl-3-(3-{6-[4-(2-morpholin-4-yl-ethoxy)-phenylamino]-pyrimidin-4-yl}-ureido)-phenyl]-3-trifluoromethyl-benzamide]				79 to 100%	56 to 98%	87 to 100%
Cc1ccc(NC(=O)c2cccc(C(F)(F)F)c2)cc1NC(=O)Nc1cc(Nc2cccc(OCCN3CCOCC3)c2)ncn1 [Example 180, N-[4-Methyl-3-(3-{6-[3-(2-morpholin-4-yl-ethoxy)-phenylamino]-pyrimidin-4-yl}-ureido)-phenyl]-3-trifluoromethyl-benzamide]				79 to 100%	56 to 98%	87 to 100%
Cc1ccc(NC(=O)c2cccc(C(F)(F)F)c2)cc1NC(=O)N(C)c1cc(Nc2ccccc2)ncn1 [Example 181, N-{4-Methyl-3-[3-methyl-3-(6-phenylamino-pyrimidin-4-yl)-ureido]-phenyl}-3-trifluoromethyl-benzamide]				79 to 100%	56 to 98%	87 to 100%
Cc1ccc(NC(=O)c2cccc(C(F)(F)F)c2)cc1NC(=O)N(C)c1cc(Nc2cccc(OCCN(C)C)c2)ncn1 [Example 182, N-[3-(3-{6-[3-(2-Dimethylamino-ethoxy)-phenylamino]-pyrimidin-4-yl}-3-methyl-ureido)-4-methyl-phenyl]-3-trifluoromethyl-benzamide]				79 to 100%	56 to 98%	87 to 100%
CCN(CC)CCOc1ccc(Nc2cc(N(C)C(=O)Nc3cc(NC(=O)c4cccc(C(F)(F)F)c4)ccc3C)ncn2)cc1 [Example 183, N-[3-(3-{6-[4-(2-Diethylamino-ethoxy)-phenylamino]-pyrimidin-4-yl}-3-methyl-ureido)-4-methyl-Phenyl]-3-trifluoromethyl-benzamide]				79 to 100%	56 to 98%	87 to 100%
Cc1ccc(NC(=O)c2cccc(C(F)(F)F)c2)cc1NC(=O)N(C)c1cc(Nc2ccc(OCCN3CCN(C)CC3)cc2)ncn1 [Example 184, N-{4-Methyl-3-[3-methyl-3-(6-{4-[2-(4-methyl-piperazin-1-yl)-ethoxy]-phenylamino}-pyrimidin-4-yl)-ureido]-phenyl}-3-trifluoromethyl-benzamide]				79 to 100%	56 to 98%	87 to 100%
Cc1ccc(NC(=O)c2cccc(C(F)(F)F)c2)cc1NC(=O)N(C)c1cc(Nc2cccc(OCCN3CCN(C)CC3)c2)ncn1 [Example 185, N-{4-Methyl-3-[3-methyl-3-(6-{3-[2-(4-methyl-piperazin-1-yl)-ethoxy]-phenylamino}-pyrimidin-4-yl)-ureido]-phenyl}-3-trifluoromethyl-benzamide]				79 to 100%	56 to 98%	87 to 100%
